Data: article PMC11605291 (Frontiers in Pharmacology, 2024)

Tests used:
[1] = Metabolite profiling and identification in plasma, urine and feces (LC/RAM/MS); type: in vivo, human; parameters: key to Plasma %AUC (percentage of total plasma radioactivity) / Urine %Dose / Feces %Dose: +: No radioactive peaks were detected, but mass spectrometry peaks were detected; ND: not detectable; settings: for Urine %Dose: pooled 0–72 h urine, total in urine 37.15%
Protocol: The plasma samples from six subjects were pooled individually according to the AUC method to obtain 6 plasma samples of 0–72 h ([Hop et al., 1998]). A portion of the proportionally mixed plasma sample was taken and added to a certain volume of acetonitrile (3×, v/v) for extraction, vortexed for 1 min, shaken for 10 min and then stored in a refrigerator at 4°C for 30 min, the mixture was removed and vortexed for 2 min and then centrifuged for 10 min at 10,000×g and 4°C. The residue from the extraction was firstly ultrasonically suspended using 1 mL of ultrapure water and then extracted using methanol (2×, v/v) and repeated twice. The organic solvent extracts were combined, blown dry with nitrogen and reconstituted with acetonitrile: ultrapure water (1:1), the reconstituted solution was centrifuged at 4°C and 10,000×g for 10 min, and the supernatant was used for radio-metabolite profiling.
The radioactivity in the organic solvent extract and the reconstitution solution was determined by LSC. The solid residue after extraction was dissolved by heating with 1N KOH solution and added to the scintillation solution to determine its radioactivity. All the final data were used to examine the recovery of radioactivity during plasma extraction.
The urine samples from the six subjects were mixed in the same volume percentage to obtain six 0–72 h urine samples. A portion of the proportionally mixed urine sample was centrifuged for 10 min at approximately 10,000×g and 4°C. Two samples were taken before and after centrifugation, and the radioactivity of the samples was determined by LSC, and the data obtained were used to calculate the recovery of radioactivity during the centrifugation process. A portion of the supernatant after centrifugation was used directly for radio-metabolite profiling.
The fecal samples from the six subjects were mixed with the same weight percentage to obtain 6 fecal homogenate samples of 0–168 h. A portion of the proportionally mixed fecal homogenate samples was taken and extracted by adding a volume of acetonitrile (3×, v/v), vortexed for 5 min at room temperature, sonicated for 5 min and then centrifuged for 10 min at 10,000 × g and 4°C. The residue of the extracted material was firstly sonicated and mixed using about 1 mL of ultrapure water before extracted using methanol (2×, v/v). The process was repeated twice and the organic extracts were combined, blown dry using nitrogen and then reconstituted with dimethyl sulfoxide: acetonitrile: ultrapure water (3:2:5), the reconstituted solution was centrifuged at 10,000×g at 4°C for 10 min and the supernatant was used for radio-metabolite profiling. […] LSC was used to determine the intensity of radioactivity contained in the organic solvent extract and in the reconstituted solution. The solid residue after extraction is fully combusted by an oxidative combustor, and the [^14C]carbon dioxide produced by combustion of the sample is captured with a scintillation solution to determine its radioactivity intensity. All final data were used to examine the extraction and recovery of radioactivity from fecal homogenate samples.
A high performance liquid chromatograph coupled with an online isotope detector and mass spectrometry (LC/RAM/MS) was used for the identification of radioactive metabolite profiles. The HPLC method consisted of an HPLC system (Shimadzu UFLC-20A-Lite), a chromatographic column (ACE Excel 3 C18, 150 × 4.6 mm id), mobile phase A (0.4% aqueous formic acid, pH = 3.2 adjusted with ammonia) and mobile phase B (acetonitrile) at a flow rate of 0.7 mL/min. The gradient was 0% B for the 0–5 min, 20% B from 15 min to 30 min, 22% B from 32 to 40 min, and 70%–100% B from 60 to 72 min. The column temperature was 28°C. […]

[2] = Total radioactivity in plasma and whole blood (LSC), pharmacokinetics and blood-to-plasma ratio; type: in vivo, human
Protocol: Six subjects were admitted to the clinical research center 1 day prior to dosing, with random urine and fecal samples collected as blank excretion controls. After fasting overnight for at least 10 h, a blank blood sample was collected after a regular breakfast (449 kcal, with ∼35% energy from fat) on Day 1. […] Scheduled collection of urine, feces, and blood samples, and safety monitoring proceeded until completion.
Venous blood samples were collected within 0.5 h prior to administration and at 0.5, 1, 1.5, 2, 3, 4, 6, 8, 12, 24, 36, 48, 72, and 96 h after administration. About 8 mL of blood was collected at each time point in the anticoagulant collection tube containing K2-EDTA. The centrifuged plasma was used for non-radioactive and radioactive pharmacokinetic and biotransformation (metabolite) analyses. In addition, about 2 mL of venous blood was collected within 0.5 h before administration and at 1, 4, 8, 12, 24, and 48 h after administration for whole blood radioactivity analysis. Additional 10 mL of venous blood for each time point was collected at 1, 4, 8, 12, 24, and 48 h after administration, and the plasma was obtained by centrifugation for biotransformation (metabolites) analysis. Urine and fecal samples were collected until 144 h (4 subjects) or 192 h (2 subjects) after administration.
Pharmacokinetic analysis was performed using Phoenix WinNonlin® software version 8.3. […] Descriptive statistics applied to parameters including maximum plasma concentration after administration (Cmax), the time to reach maximum plasma concentration after administration (Tmax), elimination rate constant (λz), area under the plasma concentration-time curve from the time 0 to the time of last quantifiable concentration (AUC0-t, obtained by the linear trapezoidal method), area under the plasma concentration-time curve from time 0 extrapolated to infinity (AUC0-∞, AUC0-∞ = AUC0-t + Ct/λ z ), half-life (t1/2, t1/2 = ln ([Lannutti et al., 2011])/λz), mean residence time (MRT, MRT = AUMC/AUC), apparent clearance (CL/F, CL/F = Dose/AUC0-∞), apparent volume of distribution based on terminal phase (Vz/F, Vz/F = Dose/(λz×AUC0-∞)).
Radioactivity was measured using an oxidative combustion apparatus and liquid scintillation counter (LSC). After the whole blood sample was vortexed thoroughly, two portions (about 0.5 g each) were weighed into the combustion boat, and after complete combustion by oxidative combustion apparatus, [^14C]carbon dioxide generated from the combustion of the samples was captured by scintillation solution and measured by liquid scintillation counter. After plasma samples were fully vortexed, one portion (approximately 0.5 g) was weighed into a scintillation vial, mixed well with the scintillation solution, and measured using a liquid scintillation counter. […]

[3] = total radioactivity in plasma, mean ± SD

**Q.** With C[C@H](Nc1ncnc(N)c1C#N)c1cc2ncc(Cl)n2nc1-c1ccccc1 [Amdizalisib] as the compound, how does the “F: %Dose in feces (Figure 4)” value [1] read?
**A.** The value was 1.21%.

**Q.** What about the “P: %AUC in plasma (Figure 4)” value [1] of the same compound?
**A.** Its value is 51.45%.

**Q.** What about the “U: %Dose in urine (Figure 4)” value [1] of the same compound?
**A.** The value was “+”.

**Q.** What about the “Plasma %AUC (percentage of total plasma radioactivity)” value ([1]; AUC-pooled 0–72 h plasma, mean of 6 subjects) of the same compound?
**A.** The value was 51.45 %AUC.

**Q.** And the “Urine %Dose” value ([1]; mean of 6 subjects)?
**A.** Its value is “+”.

**Q.** What about the “Urine %Dose” value ([1]; mean of 6 subjects, listed as parent drug) of the same compound?
**A.** The value was “detected only by mass spectrometry”.

**Q.** What about the “Feces %Dose” value ([1]; pooled 0–168 h feces, mean of 6 subjects, total in feces 62.08%) of the same compound?
**A.** Its value is 1.21 %Dose.

**Q.** And the “%AUC in AUC-pooled plasma” value ([1]; subject 01001)?
**A.** Its value is 57.45 %AUC.

**Q.** And the “%Dose in pooled feces” value ([1]; subject 01001)?
**A.** Its value is 0.77 %Dose.

**Q.** And the “%AUC in AUC-pooled plasma” value ([1]; subject 01002)?
**A.** The value was 65.57 %AUC.

**Q.** And the “%Dose in pooled feces” value ([1]; subject 01002)?
**A.** The value was 0.25 %Dose.

**Q.** And the “%AUC in AUC-pooled plasma” value ([1]; subject 01003)?
**A.** The value was 56.65 %AUC.

**Q.** And the “%Dose in pooled feces” value ([1]; subject 01003)?
**A.** The value was 1.93 %Dose.

**Q.** What about the “%AUC in AUC-pooled plasma” value ([1]; subject 01004) of the same compound?
**A.** Its value is 59.14 %AUC.

**Q.** What about the “%Dose in pooled feces” value ([1]; subject 01004) of the same compound?
**A.** Its value is 1.52 %Dose.

**Q.** What about the “%AUC in AUC-pooled plasma” value ([1]; subject 01005) of the same compound?
**A.** The value was 54.59 %AUC.

**Q.** What about the “%Dose in pooled feces” value ([1]; subject 01005) of the same compound?
**A.** Its value is 2.32 %Dose.

**Q.** And the “%AUC in AUC-pooled plasma” value ([1]; subject 01006)?
**A.** The value was 15.32 %AUC.

**Q.** What about the “%Dose in pooled feces” value ([1]; subject 01006) of the same compound?
**A.** Its value is 0.48 %Dose.

**Q.** And the “average plasma total radioactivity concentration at 96 h post dose” value ([2]; still detectable in 4 subjects)?
**A.** The value was 4.74 ng Eq./mL.

**Q.** And the “AUC0-t of total radioactivity” value [2, 3]?
**A.** Its value is 3,900 h ng Eq./mL.

**Q.** And the “CL/F of total radioactivity” value [2, 3]?
**A.** The value was 7.25 L/h.

**Q.** And the “Cmax of total radioactivity” value [2, 3]?
**A.** Its value is 368 ng Eq./mL.
